Experimental findings from ChEMBL document CHEMBL1255179, “Fatty acid synthase inhibitors of phenolic constituents isolated from Garcinia mangostana” (Bioorg Med Chem Lett, 2010) are described below.

Test [1] has as its target Fatty acid synthase (Gallus gallus) (UniProt P12276). The test is described as follows: Inhibition of FAS.
Test [2] has the same target. Put plainly: Inhibition of FAS at 1000 uM.

Fatty acid synthase (Gallus gallus), sequence (P12276 whole entry, looked up): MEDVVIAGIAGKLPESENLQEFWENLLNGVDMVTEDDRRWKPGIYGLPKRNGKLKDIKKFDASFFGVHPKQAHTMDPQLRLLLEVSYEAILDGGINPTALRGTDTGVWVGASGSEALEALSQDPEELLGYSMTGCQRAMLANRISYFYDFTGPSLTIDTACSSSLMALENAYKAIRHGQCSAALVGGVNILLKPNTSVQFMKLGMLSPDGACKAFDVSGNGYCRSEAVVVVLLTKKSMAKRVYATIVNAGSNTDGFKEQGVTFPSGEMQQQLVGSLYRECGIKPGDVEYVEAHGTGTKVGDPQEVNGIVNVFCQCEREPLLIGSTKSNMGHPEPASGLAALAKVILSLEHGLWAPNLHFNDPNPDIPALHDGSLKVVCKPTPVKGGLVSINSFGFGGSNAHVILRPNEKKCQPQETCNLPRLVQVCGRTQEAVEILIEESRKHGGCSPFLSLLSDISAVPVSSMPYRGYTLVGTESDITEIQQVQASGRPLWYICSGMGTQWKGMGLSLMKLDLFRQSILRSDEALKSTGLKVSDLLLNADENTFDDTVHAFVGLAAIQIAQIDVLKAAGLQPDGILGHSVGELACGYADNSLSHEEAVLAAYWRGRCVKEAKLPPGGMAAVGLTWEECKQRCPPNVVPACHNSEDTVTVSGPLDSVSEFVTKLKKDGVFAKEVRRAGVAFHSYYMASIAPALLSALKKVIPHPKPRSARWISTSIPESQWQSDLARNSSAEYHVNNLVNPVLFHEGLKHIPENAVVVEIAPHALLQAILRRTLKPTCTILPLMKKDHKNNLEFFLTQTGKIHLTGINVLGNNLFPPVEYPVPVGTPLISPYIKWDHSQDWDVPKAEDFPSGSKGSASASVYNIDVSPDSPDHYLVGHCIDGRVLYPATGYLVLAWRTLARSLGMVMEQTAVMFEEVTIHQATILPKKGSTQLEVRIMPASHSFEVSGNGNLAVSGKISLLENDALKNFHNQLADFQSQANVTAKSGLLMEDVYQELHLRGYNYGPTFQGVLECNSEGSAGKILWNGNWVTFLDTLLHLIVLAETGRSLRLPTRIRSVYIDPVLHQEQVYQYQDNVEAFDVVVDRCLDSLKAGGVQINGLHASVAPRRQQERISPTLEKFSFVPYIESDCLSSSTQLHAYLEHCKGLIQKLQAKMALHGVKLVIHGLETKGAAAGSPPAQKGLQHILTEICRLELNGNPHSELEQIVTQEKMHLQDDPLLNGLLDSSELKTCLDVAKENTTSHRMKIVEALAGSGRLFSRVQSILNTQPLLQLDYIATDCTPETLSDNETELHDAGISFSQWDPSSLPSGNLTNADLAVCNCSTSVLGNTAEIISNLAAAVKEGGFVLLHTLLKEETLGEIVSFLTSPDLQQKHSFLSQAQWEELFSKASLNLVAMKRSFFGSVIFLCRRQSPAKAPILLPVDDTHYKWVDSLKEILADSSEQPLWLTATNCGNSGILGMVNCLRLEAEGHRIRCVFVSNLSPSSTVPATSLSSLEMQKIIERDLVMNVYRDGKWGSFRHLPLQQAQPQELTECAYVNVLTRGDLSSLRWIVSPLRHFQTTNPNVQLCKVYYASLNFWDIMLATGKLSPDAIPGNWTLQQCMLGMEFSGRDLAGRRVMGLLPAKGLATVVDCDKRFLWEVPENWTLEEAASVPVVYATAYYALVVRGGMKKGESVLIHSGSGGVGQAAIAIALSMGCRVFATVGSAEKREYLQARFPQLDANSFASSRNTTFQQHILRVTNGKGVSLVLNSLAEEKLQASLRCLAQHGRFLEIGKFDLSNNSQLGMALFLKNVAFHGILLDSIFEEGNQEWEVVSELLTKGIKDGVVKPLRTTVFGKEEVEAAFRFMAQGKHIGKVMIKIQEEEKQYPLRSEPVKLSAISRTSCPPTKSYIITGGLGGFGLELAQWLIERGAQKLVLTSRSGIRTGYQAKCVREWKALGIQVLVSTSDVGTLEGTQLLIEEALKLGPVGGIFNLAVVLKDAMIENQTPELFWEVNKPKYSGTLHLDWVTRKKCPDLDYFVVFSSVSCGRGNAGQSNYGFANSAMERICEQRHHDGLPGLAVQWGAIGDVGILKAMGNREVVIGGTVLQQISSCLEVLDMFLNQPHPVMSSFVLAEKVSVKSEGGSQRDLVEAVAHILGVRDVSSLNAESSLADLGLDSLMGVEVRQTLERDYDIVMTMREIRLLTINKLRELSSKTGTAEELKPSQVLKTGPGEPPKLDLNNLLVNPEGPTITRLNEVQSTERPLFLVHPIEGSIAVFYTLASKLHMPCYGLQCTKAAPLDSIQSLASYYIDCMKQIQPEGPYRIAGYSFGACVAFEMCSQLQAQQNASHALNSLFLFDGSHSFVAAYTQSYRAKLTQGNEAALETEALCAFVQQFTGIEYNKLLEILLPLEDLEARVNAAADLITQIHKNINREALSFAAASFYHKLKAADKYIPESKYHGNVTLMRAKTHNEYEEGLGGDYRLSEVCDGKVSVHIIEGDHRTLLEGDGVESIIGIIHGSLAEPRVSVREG

Regarding `O=C(O[C@@H]1Cc2c(O)cc(O)cc2O[C@@H]1c1cc(O)c(O)c(O)c1)c1cc(O)c(O)c(O)c1` [EPIGALOCATECHIN GALLATE], 52 µM corresponded to half-maximal inhibition in test [1] (IC50). Same read-out and setting: the figure for `O=c1c2cc(O)ccc2oc2cc(O)cc(O)c12` is 41 µM; for `C[C@@H]1O[C@@H](O[C@@H]2C(=O)c3c(O)cc(O)cc3O[C@H]2c2cc(O)cc(O)c2)[C@H](O)[C@H](O)[C@H]1O` [NEOSMITILBIN] it is 49.2 µM. Regarding `O=C(c1cc(O)cc(O)c1)c1c(O)cc(O)cc1O`, the IC50 (as a rule, the concentration that inhibits the measured activity by half) in test [1] turned out to be 8.59 µM. `COc1c(O)cc2oc3cc4c(c(O)c3c(=O)c2c1CC=C(C)C)C=CC(C)(C)O4` [MANGOSTANIN] returned an IC50 in test [1] of 40.6 µM. Same read-out and setting: the figure for `CC(C)=CCc1c(O)cc2oc3c(CC=C(C)C)c(O)c(O)c(CC=C(C)C)c3c(=O)c2c1O` [GARCINONE E] is 3.3 µM. Still for that read-out and setting: then `O=C(c1cccc(O)c1)c1cc(O)c(O)c(O)c1`, with 14.8 µM; and `COc1c(O)cc2oc3cc(O)c(CC=C(C)C)c(O)c3c(=O)c2c1CC=C(C)C` [MANGOSTIN], with 5.54 µM; and `COc1cc2oc3cc(O)c(OC)c(CC=C(C)C)c3c(=O)c2c(O)c1CC=C(C)C`, with 24.8 µM.

In turn, `COc1cc(CCCO)cc2cc(-c3ccc4c(c3)OCO4)oc12` [EGONOL] displayed an IC50 in test [1] of 91.1 µM. Consider `Oc1cc(O)c2c(c1)O[C@@H](c1ccc(O)c(O)c1)[C@@H](O)C2` [(+)-EPICATECHIN], for which, in test [2], the IC50 is above 1000 µM. In turn, `O=c1c2cc(O)c(O)cc2oc2cc(O)cc(O)c12` registered an IC50 in test [1] of 17.9 µM. Still for that read-out and setting: then `CC(C)=CCc1c(O)cc2oc3cc(O)c(O)c(CC=C(C)C)c3c(=O)c2c1O`, with 1.24 µM.
